Data as given in patent publication US5198424A, “Functionally active selectin-derived peptides” (Board of Regents of the University of Oklahoma, priority 1992, dated 1993).
Where two headings read alike, the source gives them in different places. Ends that are not written are not given here.

Legend:
GMP-140 [1] = target: T1, GMP-140 (Homo sapiens, UniProt P16109); experiment: Neutrophil adhesion to purified GMP-140 immobilized on plastic wells (myeloperoxidase readout); type: cell-based; design: from tissue; host or cells: outdated human platelet packs (platelet lysate); conditions: for % Bound (neutrophils bound to immobilized GMP-140 in the presence of GMP-140-derived peptide): peptide 1.5 mM, cells bound with control C-terminal peptide 761-777 normalized to 100%
T1 sequence (P16109 42-830): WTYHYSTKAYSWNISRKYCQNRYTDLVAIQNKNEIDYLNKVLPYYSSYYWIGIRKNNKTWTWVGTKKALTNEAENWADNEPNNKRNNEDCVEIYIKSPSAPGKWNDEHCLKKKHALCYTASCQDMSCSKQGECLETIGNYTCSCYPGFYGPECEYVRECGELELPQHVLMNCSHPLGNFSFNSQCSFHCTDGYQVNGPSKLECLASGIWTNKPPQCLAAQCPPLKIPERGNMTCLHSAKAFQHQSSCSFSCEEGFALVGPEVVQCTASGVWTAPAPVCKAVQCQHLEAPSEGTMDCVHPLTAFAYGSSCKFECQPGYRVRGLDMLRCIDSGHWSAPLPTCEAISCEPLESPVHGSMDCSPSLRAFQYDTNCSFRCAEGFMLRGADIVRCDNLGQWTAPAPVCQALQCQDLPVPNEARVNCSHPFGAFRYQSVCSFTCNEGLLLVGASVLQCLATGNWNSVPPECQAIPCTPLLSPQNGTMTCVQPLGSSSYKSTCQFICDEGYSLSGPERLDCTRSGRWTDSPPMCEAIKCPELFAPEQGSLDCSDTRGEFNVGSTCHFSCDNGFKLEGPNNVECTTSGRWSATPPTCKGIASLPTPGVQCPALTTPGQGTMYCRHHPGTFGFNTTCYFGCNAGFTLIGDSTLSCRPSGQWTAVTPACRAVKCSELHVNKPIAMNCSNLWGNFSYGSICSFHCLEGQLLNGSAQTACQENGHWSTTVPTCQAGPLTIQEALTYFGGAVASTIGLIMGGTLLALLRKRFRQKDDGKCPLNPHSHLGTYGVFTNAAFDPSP
Source text: Peptides were screened for their ability to inhibit neutrophil adhesion to purified GMP-140 immobilized on plastic wells, using the assay described by Geng, et al., Nature 343, 757-760 (1990).
Human neutrophils are isolated from heparinized whole blood by density gradient centrifugation on Mono-Poly resolving media, Flow Laboratories. Neutrophil suspensions are greater than 98% pure and greater than 95% viable by trypan blue exclusion. For adhesion assays, neutrophils are suspended at a concentration of 2×10^6 cells/ml in Hanks' balanced salt solution containing 1.26 mM Ca^2+ and 0.81 mM Mg^2+ (HBSS, Gibco) with 5 mg/ml human serum albumin (HBSS/HSA). Adhesion assays are conducted in triplicate in 96-well microtiter plates, Corning, incubated at 4° C. overnight with 50 microliters of various protein solutions.
GMP-140 is plated at 5 micrograms/ml and the control proteins: human serum albumin (Alb), platelet glycoprotein IIb/IIIa (IIb), von Willebrand factor (vWF), fibrinogen (FIB), thrombomodulin (TM), gelatin (GEL) or human serum (HS), are added at 50 micrograms/ml. All wells are blocked for 2 h at 22° C. with 300 microliters HBSS containing 10 mg/ml HSA, then washed three times with HBSS containing 0.1% Tween-20 and once with HBSS. Cells (2×10^5 per well were added to the wells and incubated at 22° C. for 20 min. The wells were then filled with HBSS/HSA, sealed with acetate tape (Dynatech), and centrifuged inverted at 150 g for 5 min. After discarding nonadherent cells and supernates, the contents of each well are solubilized with 200 microliters 0.5% hexadecyltrimethylammonium bromide, Sigma, in 50 mM potassium phosphate, pH 6.0, and assayed for myeloperoxidase activity, Ley, et al., Blood 73, 1324-1330 (1989). The number of cells bound was derived from a standard curve of myeloperoxidase activity versus numbers of cells. Under all assay conditions, the cells released less than 5% of total myeloperoxidase and lactate dehydrogenase. Results are presented in Table I. 100% adhesion is that seen in the presence of the C-terminal peptide (amino acid residues 761-777 of GMP-140) as a negative control; this value is the same as controls in which neither peptide nor antibody is added to the cells. Inhibition is read as a lower percent adhesion, so that a value of 5% mean that 95% of the specific adhesion was inhibited.
Peptides from the lectin-like domain of GMP-140 were assayed for their ability to inhibit adhesion of neutrophils to immobilized GMP-140 in the assay described in example 1. Concentrations tested ranged from 0.1 mM to 1.5 mM.

GMP-140 [2] = target: T1, GMP-140; experiment: ELISA of binding of biotinylated monoclonal antibodies G1, G2, G3 to immobilized GMP-140 with soluble peptide; design: from tissue; host or cells: outdated human platelet packs (platelet lysate); conditions: 2 h, peptide 1.5 mM
Method: Based on competitive ELISAs with the purified protein, G1, G2, and G3 each recognize distinct or only partially overlapping epitopes. 1.5 mM peptide was added to biotinylated mAb at a concentration of 2.5 micrograms/ml, which were then added to the wells containing GMP-140, as described in example 1. Binding was measured by an ELISA with an avidin detection system.
The monoclonal antibodies were biotinylated as follows: to 0.5 ml of purified IgG antibody (1 mg/ml in PBS, pH 7.4) was added 50 μl of 3.2 mM N-hydroxysuccinimide biotin in dimethyl sulfoxide and 50 μl of 1 M NaHCO3. After a 2 hour incubation at room temperature in the dark, the reaction was stopped with 50 μl of 1 M NH4 Cl. The biotinylated antibody was then separated from other components by gel filtration on a PD-10 column equilibrated in PBS. The ELISA was performed as follows; all steps were performed at room temperature.
Biotinylated antibody (2.5 μg/ml) with or without 1.5 mM peptide was incubated with wells coated with GMP-140 as described in example 1. After a 2 hour incubation, the antibody was removed, the wells were washed, and 0.1 ml of horseradish peroxidase-conjugated stepavidin (Pierce), diluted 1:1000 in HBSS/HSA, was added for 30 min. The wells were then washed and 0.1 ml of peroxidase substrate (Pierce) was added for 15 min. The color reaction was read at 405 nm.

human neutrophils = experiment: Binding of 125I[GMP-140] to human neutrophils
Source text: This receptor is believed to be a glycoprotein containing sialic acid and other oligosaccharides that are recognized by the lectin domain of GMP-140. Using the assay described in example 1, and an assay in which ^125 I[GMP-140] binds specifically, saturably and reversibly to human neutrophils, as described by Moore and McEver, Clin.Res. 38, 364A (1990), certain critical structural features of the ligand (or, perhaps more accurately, "counter-receptor") for GMP-140 on human neutrophils have been defined.

[3] = mAb G1 2.5 micrograms/ml, read-out: % Binding of Biotinylated MAbs G1
[4] = mAb G2 2.5 micrograms/ml, read-out: % Binding of Biotinylated MAbs G2
[5] = mAb G3 2.5 micrograms/ml, read-out: % Binding of Biotinylated MAbs G3

Substance: AENWADNEPNNKR [73-85]
- % Bound (neutrophils bound to immobilized GMP-140 in the presence of GMP-140-derived peptide) (GMP-140 [1]): 41%

Substance: GTKKALTNE [64-72]
- % Bound (neutrophils bound to immobilized GMP-140 in the presence of GMP-140-derived peptide) (GMP-140 [1]): 92%

Substance: CSDTRGEFNVGST [REPEATS 544-556, reference compound]
- remaining activity at 1500 µM (GMP-140 [2]; [3]): 107%
- remaining activity at 1500 µM (GMP-140 [2]; [4]): 96%
- remaining activity at 1500 µM (GMP-140 [2]; [5]): 111%

Substance: YPGFYGPECEYVRE [EGF 145-158]
- remaining activity at 1500 µM (GMP-140 [2]; [3]): 94%
- remaining activity at 1500 µM (GMP-140 [2]; [4]): 92%
- remaining activity at 1500 µM (GMP-140 [2]; [5]): 108%

Substance: PNNKRNNED [81-89]
- % Bound (neutrophils bound to immobilized GMP-140 in the presence of GMP-140-derived peptide) (GMP-140 [1]): 104%

Substance: RYTDLVAIQ [22-30]
- % Bound (neutrophils bound to immobilized GMP-140 in the presence of GMP-140-derived peptide) (GMP-140 [1]): 6%

Substance: NRYTDLVAIQ [21-30]
- % Bound (neutrophils bound to immobilized GMP-140 in the presence of GMP-140-derived peptide) (GMP-140 [1]): 20%

Substance: 66-78: GMP-140 lectin domain amino acids 66-78, overlapping peptide; by b139 alignment KKALTENAENWAD
- inhibition of neutrophil adhesion to immobilized GMP-140 (in words) (GMP-140 [1]): inhibited adhesion
- inhibition of neutrophil binding to immobilized GMP-140, dependence on concentration (GMP-140 [1]; FIG. 3, 0.1 mM to 1.5 mM peptide): inhibited binding in a dose-dependent manner
- inhibition of neutrophil adhesion to immobilized GMP-140 (in words) (GMP-140 [1]; listed as 66 to 78): very active
- % Bound (neutrophils bound to immobilized GMP-140 in the presence of GMP-140-derived peptide) (GMP-140 [1]): 6%

Substance: NRYTDLVA [21-28]
- % Bound (neutrophils bound to immobilized GMP-140 in the presence of GMP-140-derived peptide) (GMP-140 [1]): 85%

Substance: RKNNKTWTWV [54-63]
- % Bound (neutrophils bound to immobilized GMP-140 in the presence of GMP-140-derived peptide) (GMP-140 [1]): 13%

Substance: ADNEPNNKRNNED [77-89]
- % Bound (neutrophils bound to immobilized GMP-140 in the presence of GMP-140-derived peptide) (GMP-140 [1]): 68%

Substance: KNNKTW [55-60]
- % Bound (neutrophils bound to immobilized GMP-140 in the presence of GMP-140-derived peptide) (GMP-140 [1]): 70%

Substance: VEIYIKSPSAPGKWNDEH [LECTIN 91-108]
- remaining activity at 1500 µM (GMP-140 [2]; [3]): 97%
- remaining activity at 1500 µM (GMP-140 [2]; [4]): 93%
- remaining activity at 1500 µM (GMP-140 [2]; [5]): 96%

Substance: NRYTDLVAI [21-29]
- % Bound (neutrophils bound to immobilized GMP-140 in the presence of GMP-140-derived peptide) (GMP-140 [1]): 71%

Substance: AENWADNE [73-80]
- % Bound (neutrophils bound to immobilized GMP-140 in the presence of GMP-140-derived peptide) (GMP-140 [1]): 100%

Substance: RKNNK [54-58]
- % Bound (neutrophils bound to immobilized GMP-140 in the presence of GMP-140-derived peptide) (GMP-140 [1]): 108%

Substance: elastase [reference compound]
- adhesion of neutrophils to immobilized GMP-140 abolished (GMP-140 [1]; neutrophils treated with the protease): Greater than 70%

Substance: SKQGE [EGF 128-132]
- remaining activity at 1500 µM (GMP-140 [2]; [3]): 107%
- remaining activity at 1500 µM (GMP-140 [2]; [4]): 92%
- remaining activity at 1500 µM (GMP-140 [2]; [5]): 104%

Substance: CQNRYTDL [19-26]
- % Bound (neutrophils bound to immobilized GMP-140 in the presence of GMP-140-derived peptide) (GMP-140 [1]): 92%

Substance: neuraminidase: neuraminidase purified from Vibrio cholera [reference compound]
- adhesion of neutrophils to immobilized GMP-140 after treatment of neutrophils (in words) (GMP-140 [1]; neutrophils treated with the enzyme): abolished
- binding of 125I[GMP-140] to human neutrophils (in words) (human neutrophils): abolished
